Source: article PMC2864270 (PLoS Neglected Tropical Diseases, 2010)
Where two headings read alike, the source gives them in different places.

Key:
L. major promastigote = assay: Primary screening resazurin viability assay, L. major promastigotes; format: cell-based, Leishmania major; details: for Active compound selection in the 4,000-compound library screen: cut-off 70% proliferation inhibition at the lowest compound concentration (0.2–0.02 µM), duplicate, data not shown; for EC50: Leishmania major, promastigotes
Experimental: (§1) L. major MHOM/IL/81/FRIEDLIN and L. donovani MHOM/ET/67/HU3 promastigotes were cultivated at 28°C in axenic M199 culture medium (Welgene, S. Korea) supplemented with 10% heat-inactivated fetal bovine serum (FBS) (Gibco, United States) and 1% streptomycin/penicillin (Gibco, United States).
(§2) After compound addition to the assay plate (Evotec™ 384-well microplate, Germany), 20,000 L. major promastigote parasites from an exponential phase culture (∼10^7 parasites/mL) were diluted in M199, seeded in 50 µL per well using FlexDrop™ and incubated at 28°C for 28 hours, followed by the addition of 5 mM resazurin sodium salt (Sigma R7017, United States) and further incubation for 20 hours at 28°C. After a 48-hour exposure to compounds, the reference drug (EtBr) or control (1% DMSO), the parasites were fixed with 2% paraformaldehyde (PFA) and plates were read in Victor3™ (Perkin Elmer) at 530 nm (excitation) and 590 nm (emission). This fixation step is not necessary for resazurin readout, but allows flexibility in the automation schedule and increases assay robustness by decreasing metabolic variability between populations across wells and plates.
The effect of compounds on Leishmania viability was assessed by fluorometric measurement of resazurin reduction. […] Reference compounds for antileishmanial activity (EtBr, amphotericin B, miltefosine and paromomycin) were tested (Fig. 1B) as a step of the validation process. […] Assay validation was performed on three separate days using 33 microplates (384 wells/plate) containing only controls. […] After assay validation, we screened a 4,000-compound library containing a number of compounds with known pharmacological properties. […] This assay was done in duplicate and results of each concentration assay are represented as individual graphs in Fig. 1D.

L. donovani promastigote = assay: Resazurin viability assay, L. donovani promastigotes; format: cell-based; details: Leishmania donovani
Experimental: as §1
as §2, with “plates. Z-factor, calculated as 1−(3×σp+3×σn)/(|μp−μn|), where μp, σp, μn and σn are the means (μ) and standard deviations (σ) of both the positive (p) and negative (n) controls, and other parameters, including DRC plates for verification of the reference drug EC50 (accepted if within the range of 3× higher or lower than a defined value from the literature), coefficient of variation not higher than 10% in the controls and edge effect evaluation, were used for screening validation and hits selection.” for “plates.”
Infection of human macrophage cells in vitro with Leishmania has been previously described as a suitable model for screening and was adopted for our purpose. The 124 active compounds selected from the secondary assay were tested in 10-point dose response with 2-fold serial dilutions starting from 20 µM against promastigotes and intracellular amastigotes of L. major and L. donovani infecting macrophages. The average Z-factor calculated per plate based on the reference drug (amphotericin B) and carrier (1% DMSO) was 0.62 for L. major infection and 0.59 for L. donovani infection, and minimum accepted Z-factor for the analysis was 0.5.

[1] = Microsomal stability assay, human liver microsomes; format: in vitro ADME; details: 2 µM compound, 0.5 mg/mL microsomes; for parent compound remaining after 30 minutes, human liver microsomes: NADPH
Experimental: (§3) Compounds at a concentration of 2 µM in 0.2% DMSO were incubated with 0.5 mg/mL rat (Sprague-Dawley Rat, BD Gentest) and human (human pool donors, BD Gentest) liver microsomes in potassium phosphate buffer in a reaction started by the addition of NADPH and stopped either immediately or at 5, 10, 30, 60 or 120 minutes for a precise estimate of microsomal stability. The corresponding loss of the parent compound was determined by a quadrupole liquid chromatography-mass spectrometry (LC-MS) with diode-array detection (Agilent 1200, Agilent Technology). The samples were passed through trapping cartridges (Security Guard Cartridge, Gemini C18, 4×2.0 mm, 3 µm, Phenomenex) followed by an analytical column (Gemini C18, 50×2.0 mm, 3 µm, Phenomenex). Positive electrospray ionization (ESI+) was employed for this analysis. The mobile phases A (water with 0.1% formic acid) and B (acetonitrile with 0.1% formic acid) were used at a flow rate of 0.3 mL/min. Gradient elution started with 95% mobile phase A and 5% mobile phase B. Elution was changed to a linear gradient until 50% A and B for 1 min. This condition was held for 0.5 min, then increased to 95% B over 0.5 min, and held for 1.5 min. Then, the elution gradient returned to 95% A and 5% B over 0.5 min, was held for the remaining 3.5 min. The percentage of the remaining compound was calculated by comparison with the initial quantity at 0 min. Half-life was calculated based on first-order reaction kinetics.

[2] = test system: L. major intracellular amastigotes; assay: Intracellular amastigotes assay, L. major infecting THP-1 macrophages (image-based infection ratio); format: cell-based; details: Leishmania major, 96 h, intracellular amastigotes infecting THP-1 macrophages, 4 days incubation, read-out: L. major EC50 amastigote
Experimental: (§4) THP-1 cells were cultivated in suspension at a density of 10^5 to 10^6 cells/mL in RPMI (Gibco 1640, United States) medium supplemented with 10% heat-inactivated FBS and 1% streptomycin/penicillin at 37°C and 5% CO2. The differentiation of THP-1 into macrophages was induced by incubation of the cells for 48 hours with phorbol 12-myristate 13-acetate (PMA) at 50 ng/ml. For infection, late-stage L. major or L. donovani rich in metacyclic promastigotes was added to differentiated THP-1 cells (ratio of 50 parasites to 1 host cell) in Evotec™ 384-well microplates using a FlexDrop™ (Perkin Elmer) to dispense 50 µL/well. Compounds were added 24 hours after infection and microplates were incubated at 37°C and 5% CO2 for 4 days. Amphotericin B as the reference compound (positive control) at 10 µM as the EC100 and 1% DMSO (negative control) were used in all the plates for data normalization (see bellow). […] Microplates were read in an Opera confocal microscope (Perkin Elmer), enabling the determination of the infection ratio of the parasites by image analysis. […] The macrophage nuclei and internalized parasites were identified and counted if localized in the foreground previously selected (Figure S1). With this technique, extracellular parasites were not considered in the calculations, and the infection ratio was determined by the number of infected cells divided by the total number of cells after normalization based on the controls. The average infection ratios from the positive and negative controls were normalized to 0% and 100% infection, and the infection ratio read from each compound activity was proportionally distributed within this range. […]
(§5) Infection of human macrophage cells in vitro with Leishmania has been previously described as a suitable model for screening and was adopted for our purpose. […] The average Z-factor calculated per plate based on the reference drug (amphotericin B) and carrier (1% DMSO) was 0.62 for L. major infection and 0.59 for L. donovani infection, and minimum accepted Z-factor for the analysis was 0.5.

CYP3A4 = CYP3A4 (Homo sapiens, UniProt P08684); assay: CYP450 inhibition assay, fluorescent probe BFC; format: in vitro ADME; details: for IC50: individual human P450s, eight-point curve
Experimental: (§6) Individual fluorescent probe substrates were used with individual rhCYP isozymes and fluorescence detection according to a previously published method. Probe substrates were 7-benzyloxy-4-(trifluoromethyl)-coumarin (BFC) for CYP3A4 and 3-[2-(N,N-diethyl-N-methylammonium)ethyl]-7-methoxy-4-methylcoumarin (AMMC) for CYP2D6 in 0.5% DMSO. IC50 was determined using an eight-point concentration curve with three-fold serial dilutions. Victor3™ (Perkin Elmer) was used for quantification in the fluorescent method (Perkin Elmer Life and Analytical Sciences).

[3] = Human cell toxicity test, resazurin viability; format: cell-based; details: THP-1 cells (non-differentiated); THP-1 human cell line; read-out: Cytotoxicity CC50 THP-1
Experimental: To assess the cytotoxicity of compounds on THP-1, an acute monocytic leukemia-derived human cell line (ATCC TIB-202™), a viability assay also using resazurin reduction with minor modifications in concentration and incubation time was performed. Z-factor [15] and other parameters were used for secondary screening validation and hit exclusion.
To exclude potentially toxic compounds from the active list, we performed a secondary viability screening using the non-differentiated human macrophage cell line THP-1. Compounds that interfered with THP-1 viability at a concentration of 10 µM or lower were discarded.

[4] = Microsomal stability assay, rat liver microsomes; format: in vitro ADME, Sprague-Dawley Rat; details: 2 µM compound, 0.5 mg/mL microsomes; for half-life at 2 µM: Sprague-Dawley, rat, liver microsomes, first-order kinetics, read-out: theoretical half-life, rat liver microsomes
Experimental: as §3

CYP2D6 = CYP2D6 (Homo sapiens, UniProt P10635); assay: CYP450 inhibition assay, fluorescent probe AMMC; format: in vitro ADME; details: for IC50: individual human P450s, eight-point curve
Experimental: as §6

[5] = test system: L. donovani intracellular amastigotes; assay: Intracellular amastigotes assay, L. donovani infecting THP-1 macrophages (image-based infection ratio); format: cell-based; details: Leishmania donovani, 96 h, intracellular amastigotes infecting THP-1 macrophages, 4 days incubation, read-out: L. donovani EC50 amastigote
Experimental: as §4, §5

[6] = Fig. 1B, HTS format, promastigotes, read-out: EC50 of reference compound, L. donovani (grey dashed line)
[7] = Fig. 1B, HTS format, read-out: EC50 of reference compound, L. major (black line)
[8] = promastigotes, 10-point dose response, 2-fold dilutions from 20 µM, read-out: L. donovani EC50 promastigote
[9] = 10-point dose response, 2-fold dilutions from 20 µM, read-out: L. major EC50 promastigote

Sequence of CYP2D6 (P10635 whole entry): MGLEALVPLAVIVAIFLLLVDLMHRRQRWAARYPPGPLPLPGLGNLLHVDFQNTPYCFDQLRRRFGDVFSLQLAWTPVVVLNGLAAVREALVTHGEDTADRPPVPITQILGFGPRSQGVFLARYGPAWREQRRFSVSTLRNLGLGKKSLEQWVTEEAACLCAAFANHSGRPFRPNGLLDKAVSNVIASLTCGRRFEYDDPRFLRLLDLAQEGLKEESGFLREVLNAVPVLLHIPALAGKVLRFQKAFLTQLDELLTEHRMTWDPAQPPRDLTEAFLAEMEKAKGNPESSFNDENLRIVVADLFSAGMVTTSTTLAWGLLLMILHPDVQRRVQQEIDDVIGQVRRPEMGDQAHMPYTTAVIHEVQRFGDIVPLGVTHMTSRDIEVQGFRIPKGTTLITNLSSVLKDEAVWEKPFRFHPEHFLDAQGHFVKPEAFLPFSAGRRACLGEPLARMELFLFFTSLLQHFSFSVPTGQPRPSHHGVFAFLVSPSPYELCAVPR
Sequence of CYP3A4 (P08684 whole entry): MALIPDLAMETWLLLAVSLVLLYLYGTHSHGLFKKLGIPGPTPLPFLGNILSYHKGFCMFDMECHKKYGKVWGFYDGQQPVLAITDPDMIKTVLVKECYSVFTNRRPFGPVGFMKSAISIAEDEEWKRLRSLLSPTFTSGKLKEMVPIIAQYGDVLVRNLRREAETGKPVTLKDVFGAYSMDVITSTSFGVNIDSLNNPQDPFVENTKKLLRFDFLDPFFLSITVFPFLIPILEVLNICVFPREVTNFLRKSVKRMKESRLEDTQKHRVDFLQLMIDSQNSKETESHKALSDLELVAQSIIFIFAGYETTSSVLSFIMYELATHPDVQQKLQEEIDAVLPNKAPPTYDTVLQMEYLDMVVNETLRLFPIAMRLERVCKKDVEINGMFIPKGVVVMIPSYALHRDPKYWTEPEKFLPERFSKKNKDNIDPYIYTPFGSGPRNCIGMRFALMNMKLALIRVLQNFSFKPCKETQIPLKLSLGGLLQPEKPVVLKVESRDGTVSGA

Compound: COc1ccc(C[C@H]2NC[C@H](O)[C@H]2OC(C)=O)cc1 [anisomycin]
- Active compound selection in the 4,000-compound library screen (L. major promastigote): active

Compound: NC[C@@H]1O[C@H](O[C@H]2[C@@H](O)[C@H](O[C@@H]3[C@@H](O)[C@H](N)C[C@H](N)[C@H]3O[C@H]3O[C@H](CO)[C@@H](O)[C@H](O)[C@H]3N)O[C@@H]2CO)[C@H](N)[C@@H](O)[C@@H]1O [paromomycin]
- EC50 (L. donovani promastigote; [6]): 13000 nM
- EC50 (L. major promastigote; [7]): 62500 nM

Compound: O=C1OCCN1/N=C/c1ccc([N+](=O)[O-])o1 [furazolidone]
- Active compound selection in the 4,000-compound library screen (L. major promastigote): active

Compound: CC[n+]1c(-c2ccccc2)c2cc(N)ccc2c2ccc(N)cc21 [EtBr, Ethidium bromide]
- EC50 (L. donovani promastigote; read-out: EC50 of reference compound, L. donovani (grey dashed line)): 5 nM
- EC50 (L. major promastigote; [7]): 14 nM

Compound: Cc1nc2c(Cl)cccc2c(O)c1CN1CCCCC1C (stereo not shown) [CH872]
- parent compound remaining after 30 minutes, human liver microsomes [1]: 99.6%
- theoretical half-life, human liver microsomes ([1]; first-order kinetics): long
- EC50 (L. donovani promastigote; [8]): 50 nM
- EC50 [2]: 300 nM
- EC50 (CYP3A4): > 10000 nM
- IC50 (CYP3A4): > 10000 nM
- CC50 [3]: > 10000 nM
- time after which completely degraded, rat liver microsomes [4]: 25 min
- half-life at 2 µM [4]: 4.1 min
- EC50 (CYP2D6): > 10000 nM
- IC50 (CYP2D6): > 10000 nM
- EC50 [5]: 60 nM
- EC50 (L. major promastigote; [9]): 100 nM

Compound: N=C(N)c1ccc(OCCCCCOc2ccc(C(=N)N)cc2)cc1 [pentamidine isethionate]
- Active compound selection in the 4,000-compound library screen (L. major promastigote): active

Compound: C=C1C(=O)O[C@H]2[C@H]1CC/C(C)=C/CC[C@@]1(C)O[C@@H]21 [parthenolide]
- Active compound selection in the 4,000-compound library screen (L. major promastigote): active

Compound: COc1cc(/C=N/NC(=O)c2cccc(C)c2O)ccc1OCc1ccccc1 [CA272]
- parent compound remaining after 30 minutes, human liver microsomes [1]: 77.8%
- half-life at 2 µM ([1]; human, liver microsomes, first-order kinetics, read-out: theoretical half-life, human liver microsomes): 79.4 min
- EC50 (L. donovani promastigote; [8]): 2700 nM
- EC50 [2]: 800 nM
- EC50 (CYP3A4): 3410 nM
- IC50 (CYP3A4): 3410 nM
- CC50 [3]: > 10000 nM
- parent compound remaining, rat liver microsomes ([4]; NADPH, 30 minutes): 53.3%
- half-life at 2 µM [4]: 31.8 min
- EC50 (CYP2D6): > 10000 nM
- IC50 (CYP2D6): > 10000 nM
- EC50 [5]: 19000 nM
- EC50 (L. major promastigote; [9]): 2700 nM

Compound: CCCCCCCCCCCCCCCCOP(=O)([O-])OCC[N+](C)(C)C [miltefosine]
- EC50 (L. donovani promastigote; [6]): 2700 nM
- EC50 (L. major promastigote; [7]): 4700 nM

Compound: C[C@@H]1[C@H](O)[C@@H](C)/C=C/C=C/C=C/C=C/C=C/C=C/C=C/[C@H](O[C@@H]2O[C@H](C)[C@@H](O)[C@H](N)[C@@H]2O)C[C@@H]2O[C@](O)(C[C@@H](O)C[C@@H](O)[C@H](O)CC[C@@H](O)C[C@@H](O)CC(=O)O[C@H]1C)C[C@H](O)[C@H]2C(=O)O [amphotericin B, reference compound]
- EC50 (L. donovani promastigote; [6]): 1300 nM
- EC50 [2]: 1060 nM
- EC50 [5]: 820 nM
- EC50 (L. major promastigote; [7]): 3900 nM

Compound: COc1ccc2cc3[n+](cc2c1OC)CCc1cc2c(cc1-3)OCO2 [berberine chloride]
- Active compound selection in the 4,000-compound library screen (L. major promastigote): active

Compound: CC1CS(=O)(=O)CCN1/N=C/c1ccc([N+](=O)[O-])o1 (stereo not shown) [nifurtimox]
- Active compound selection in the 4,000-compound library screen (L. major promastigote): active

Compound: NC(=O)N/N=C/c1ccc([N+](=O)[O-])o1 [nitrofural]
- Active compound selection in the 4,000-compound library screen (L. major promastigote): active
